The values that follow come from article PMC9025269, “Synthesis and Anti-Hepatitis B Activities of 3′-Fluoro-2′-Substituted Apionucleosides” (Molecules, 2022).

Molecules are shown by their SMILES.

Assay type in all cases: biochemical
The target in assay [1] is T1, human DNA polymerase γ (Homo sapiens, UniProt P54098).
T1 construct: purchased Abcam 196066
T1 sequence (P54098 1-1239): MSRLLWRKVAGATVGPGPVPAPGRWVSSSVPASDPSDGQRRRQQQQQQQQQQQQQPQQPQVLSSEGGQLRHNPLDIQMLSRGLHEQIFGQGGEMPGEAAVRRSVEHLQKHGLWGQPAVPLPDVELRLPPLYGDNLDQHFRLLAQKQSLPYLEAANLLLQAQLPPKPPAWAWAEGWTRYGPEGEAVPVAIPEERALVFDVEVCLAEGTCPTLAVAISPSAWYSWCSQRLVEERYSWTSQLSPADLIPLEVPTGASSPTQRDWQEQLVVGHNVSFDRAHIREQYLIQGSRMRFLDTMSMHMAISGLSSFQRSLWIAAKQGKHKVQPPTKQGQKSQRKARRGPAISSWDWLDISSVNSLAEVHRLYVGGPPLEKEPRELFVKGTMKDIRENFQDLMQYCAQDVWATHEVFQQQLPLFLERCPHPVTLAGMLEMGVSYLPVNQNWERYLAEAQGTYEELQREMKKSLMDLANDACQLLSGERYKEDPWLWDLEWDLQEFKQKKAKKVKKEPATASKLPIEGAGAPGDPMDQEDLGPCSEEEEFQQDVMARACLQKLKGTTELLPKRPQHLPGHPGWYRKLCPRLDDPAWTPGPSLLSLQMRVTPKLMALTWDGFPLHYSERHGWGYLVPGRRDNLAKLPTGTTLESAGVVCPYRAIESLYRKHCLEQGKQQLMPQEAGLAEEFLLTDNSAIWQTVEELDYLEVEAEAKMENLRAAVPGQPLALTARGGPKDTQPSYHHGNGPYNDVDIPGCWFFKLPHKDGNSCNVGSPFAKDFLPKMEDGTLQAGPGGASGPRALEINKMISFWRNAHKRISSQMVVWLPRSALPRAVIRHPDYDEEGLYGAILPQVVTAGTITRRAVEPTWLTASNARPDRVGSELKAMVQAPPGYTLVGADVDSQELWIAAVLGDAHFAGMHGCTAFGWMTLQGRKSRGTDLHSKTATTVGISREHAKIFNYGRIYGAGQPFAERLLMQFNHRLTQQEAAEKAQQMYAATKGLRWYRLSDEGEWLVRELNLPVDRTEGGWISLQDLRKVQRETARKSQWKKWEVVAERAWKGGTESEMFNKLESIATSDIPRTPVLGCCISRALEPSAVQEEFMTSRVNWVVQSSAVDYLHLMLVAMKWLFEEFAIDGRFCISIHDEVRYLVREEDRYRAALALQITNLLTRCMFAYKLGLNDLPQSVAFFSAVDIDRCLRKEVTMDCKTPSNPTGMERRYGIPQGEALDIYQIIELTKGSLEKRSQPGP
The experiment in a line: Human DNA polymerase γ DdDp assay. On the procedure:
(§1) The DNA-dependent DNA polymerization (DdDp) activity of human DNA polymerases α, β, and γ was measured as described previously. Briefly, the assays were run with 5 U/mL recombinant DNA polymerase α (CHIMERx, cat#1075-1), 0.5 U/mL recombinant DNA polymerase β (CHIMERx, cat#1077-1), or 0.1 μg/mL recombinant DNA polymerase γ (Abcam, cat#196066), 62 μg/mL activated calf thymus DNA, 50 mM Tris-HCl (pH 8.0), 60 mM KCl, 5 mM MgCl2, 4 mM dithiothreitol (DTT), 0.1 mg/mL BSA, 2 μM dCTP, 2 μM dATP, 2 μM dGTP, 0.05 μCi/μL ^3H-dTTP (Perkin Elmer) and compounds at various concentrations at 30 °C for 2 h. The 50 μL reactions were processed following the same filter plate method as described above for HIV-1 RT. Acid-precipitated tritiated DNA products retained on the filters were detected by a Trilux MicroBeta scintillation reader (Perkin Elmer). All data were analyzed as described above for HIV-1 RT.

In assay [2] the target is T2, human DNA polymerase β (Homo sapiens, UniProt P06746).
T2 construct: purchased CHIMERx 1077-1
Put plainly: Human DNA polymerase β DdDp assay. On the procedure:
as §1

The target of assay [3] is T3, HBV polymerase (Hepatitis B virus genotype D subtype ayw, UniProt P03156).
T3 construct: Recombinant HBV polymerase (Hepatitis B virus genotype D subtype ayw, full length); made in house; host or cells: Sf9 insect cells (baculovirus)
T3 sequence (P03156 whole entry): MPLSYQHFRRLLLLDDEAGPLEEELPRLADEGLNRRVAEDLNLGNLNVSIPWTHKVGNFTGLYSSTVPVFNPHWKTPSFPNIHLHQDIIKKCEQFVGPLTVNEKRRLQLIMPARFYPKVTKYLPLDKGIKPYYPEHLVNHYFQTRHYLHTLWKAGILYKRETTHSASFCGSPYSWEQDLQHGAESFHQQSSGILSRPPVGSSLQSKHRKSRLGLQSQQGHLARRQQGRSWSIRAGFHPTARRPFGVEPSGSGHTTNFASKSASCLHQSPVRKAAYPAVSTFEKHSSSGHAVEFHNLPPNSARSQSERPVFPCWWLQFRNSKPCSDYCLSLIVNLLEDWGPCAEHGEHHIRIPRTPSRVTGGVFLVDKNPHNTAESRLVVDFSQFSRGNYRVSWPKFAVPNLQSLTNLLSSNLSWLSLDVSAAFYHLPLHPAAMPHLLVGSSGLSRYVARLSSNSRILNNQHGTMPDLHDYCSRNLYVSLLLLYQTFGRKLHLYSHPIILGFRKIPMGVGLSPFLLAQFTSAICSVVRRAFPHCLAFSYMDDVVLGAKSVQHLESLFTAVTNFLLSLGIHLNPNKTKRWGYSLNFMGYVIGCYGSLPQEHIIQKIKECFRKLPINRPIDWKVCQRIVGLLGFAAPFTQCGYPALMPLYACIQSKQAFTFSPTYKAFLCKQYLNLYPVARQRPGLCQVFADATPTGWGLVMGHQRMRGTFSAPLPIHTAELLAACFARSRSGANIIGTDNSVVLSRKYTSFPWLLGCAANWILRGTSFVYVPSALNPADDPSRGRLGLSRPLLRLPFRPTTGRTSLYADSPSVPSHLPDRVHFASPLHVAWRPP
Put plainly: HBV polymerase RdDp activity assay. The conditions noted are these: read-out: HBV pol IC50. An excerpt:
HIV-1 reverse transcriptase (HIV-1 RT) was purchased from Abcam (cat#ab63979). Recombinant HBV polymerase (Hepatitis B virus genotype D subtype ayw, full length) was cloned using the baculovirus system, expressed in sf9 cells, and purified with similar strategy and methods described by Lanford et al.. A DNA primer (5′-[…]-3′) was synthesized by IDTDNA and a 358-nt RNA template was synthesized in-house using Megascript T7 transcription kit (ThermoFisher, cat#AM1334). dNTPs were purchased from Thermo Fisher and ^3H-dTTP from Perkin Elmer. Filter plates were purchased from Millipore (cat#MABN0V050) and microscint-20 was purchased from Perkin Elmer (cat#6013621).
The RdDp activity of HBV polymerase was measured similarly as described for the HIV-1 RT. To test compound inhibition effect, the reactions were performed at 30 °C for 120 min in a reaction mixture containing reaction buffer (50 mM Tris-Cl, pH 7.5, 100 mM KCl, 12.5 mM MgCl2, 4 mM DTT), 15 µg/mL polymerase, 0.5 µM DNA primer, 0.05 µM RNA template, 10% DMSO, 0.046 µM dATP, 0.057 µM dGTP, 0.017 µM dCTP, 0.32 µM ^3H-dTTP, and compounds at various concentrations.
All data were analyzed with GraphPad Prism. […]

The IC50 is the concentration that inhibits the measured activity by half. `Nc1ncnc2c1ncn2[C@@H]1OC[C@](F)(COP(=O)(O)OP(=O)(O)OP(=O)(O)O)[C@H]1CO` [Compound 38, ((3S,4S,5R)-5-(6-Amino-9H-purin-9-yl)-3-fluoro-4-(hydroxymethyl)tetrahydrofuran-3-yl)methyl triphosphate]: the IC50 is over 100 µM in assay [1], over 100 µM in assay [2] and 0.12 µM in assay [3].
